Laboratory results taken from PubChem BioAssay (NCI).
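Grown in 96-well plates, cells were treated for 48 hours with each compound at five concentrations. Insufficient inhibition: endpoint recorded as highest concentration tested. GI50 is the concentration that inhibits growth by half. At the TGI there is no net growth.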

How the values were obtained:
Experiment in all cases: NCI tumour cell line growth inhibition, 48 h
COLO 205 colon = test system: COLO 205 colon
DU-145 prostate = test system: DU-145 prostate
BT-549 breast = test system: BT-549 breast
NCI-H522 lung = test system: NCI-H522 lung
K-562 leukemia = test system: K-562 leukemia
SW-620 colon = test system: SW-620 colon
NCI-H23 lung = test system: NCI-H23 lung
LOX IMVI melanoma = test system: LOX IMVI melanoma
UACC-257 melanoma = test system: UACC-257 melanoma
MALME-3M melanoma = test system: MALME-3M melanoma
HCC-2998 colon = test system: HCC-2998 colon
SNB-75 CNS = test system: SNB-75 CNS
NCI-H460 lung = test system: NCI-H460 lung
MDA-MB-231 breast = test system: MDA-MB-231 breast
HOP-62 NSCLC = test system: HOP-62 NSCLC
TK-10 renal = test system: TK-10 renal
OVCAR-4 ovarian = test system: OVCAR-4 ovarian
SK-MEL-5 melanoma = test system: SK-MEL-5 melanoma
786-0 renal = test system: 786-0 renal
KM12 colon = test system: KM12 colon
UACC-62 melanoma = test system: UACC-62 melanoma
OVCAR-8 ovarian = test system: OVCAR-8 ovarian
HS 578T breast = test system: HS 578T breast
RXF 393 renal = test system: RXF 393 renal
SK-MEL-2 melanoma = test system: SK-MEL-2 melanoma
HL-60(TB) leukemia = test system: HL-60(TB) leukemia
U251 CNS = test system: U251 CNS
MDA-MB-435 = test system: MDA-MB-435

## C=C1C(=O)O[C@H]2[C@H]1CC/C(COC(=O)CCCCCCC(=O)OC/C1=C/CC[C@@]3(C)O[C@H]3[C@H]3OC(=O)C(=C)[C@@H]3CC1)=C\CC[C@@]1(C)O[C@@H]21
COLO 205 colon
  TGI: 4.26 µM
DU-145 prostate
  GI50: 5.59 µM
  TGI: 17.7 µM
BT-549 breast
  GI50: 1.81 µM
  TGI: 4.33 µM
NCI-H522 lung
  GI50: 1.92 µM
  TGI: 3.45 µM
K-562 leukemia
  GI50: 2.73 µM
  TGI: 11.1 µM
SW-620 colon
  GI50: 2.18 µM
  TGI: 6.24 µM
NCI-H23 lung
  GI50: 2.94 µM
  TGI: 12.6 µM
LOX IMVI melanoma
  GI50: 1.58 µM
  TGI: 3.12 µM
UACC-257 melanoma
  GI50: 2.1 µM
  TGI: 6.22 µM
MALME-3M melanoma
  GI50: 2.55 µM
  TGI: 7.05 µM
HCC-2998 colon
  GI50: 3.76 µM
  TGI: 12.5 µM
SNB-75 CNS
  GI50: 12.9 µM
  TGI: 36.6 µM
NCI-H460 lung
  GI50: 5.36 µM
  TGI: 23.9 µM
MDA-MB-231 breast
  GI50: 2.28 µM
  TGI: 5.94 µM
HOP-62 NSCLC
  GI50: 6.69 µM
  TGI: 22.9 µM
TK-10 renal
  GI50: 3.46 µM
  TGI: 9.42 µM
OVCAR-4 ovarian
  GI50: 3.23 µM
  TGI: 13.8 µM
SK-MEL-5 melanoma
  GI50: 4.83 µM
  TGI: 16.6 µM
786-0 renal
  GI50: 1.84 µM
  TGI: 3.87 µM
KM12 colon
  GI50: 3.84 µM
  TGI: 16.9 µM
UACC-62 melanoma
  GI50: 5.47 µM
  TGI: 20.2 µM
OVCAR-8 ovarian
  GI50: 3 µM
  TGI: 10.3 µM
HS 578T breast
  GI50: 2.3 µM
  TGI: 8.7 µM
RXF 393 renal
  GI50: 1.61 µM
  TGI: 3.33 µM
SK-MEL-2 melanoma
  GI50: 12.6 µM
  TGI: 29.7 µM
HL-60(TB) leukemia
  GI50: 1.5 µM
  TGI: 4.23 µM
U251 CNS
  GI50: 2.96 µM
  TGI: 10.3 µM
MDA-MB-435
  GI50: 3.33 µM
  TGI: 14.2 µM
